{"source": "patent US9205064B2", "about": "“Methods for the diagnosis of oncological disorders using epimetabolic shifters, multidimensional intracellular molecules, or environmental influencers” (Berg LLC, priority 2009, dated 2015)", "key": {"[1]": {"test_system": "Succinate Dehydrogenase B in NCIE0808 Mitopreps", "test": "Western blot of succinate dehydrogenase B in mitochondrial preparations", "type": "cell-based", "conditions": "mitochondrial preparations of cancer cells", "experimental": "The above blots were stripped by incubating for 30 minutes with methanol, followed by two 10 minute washes with TBS-T, then 30 minutes of incubation with Stripping buffer at 50 deg C., and followed by two washes with 100 ml or more of TBS-T for 30′ each. The blots were scanned in laser scanner to check for complete stripping. The blots were activated with methanol for 5 seconds, washed with water for 5 minutes, and TBST for 15 minutes. The blots were blocked for 1 hour with 5% blocking reagent in TBS-T at room temperature and then washed 3 times with TBS-T (1×-15′; 2×5′ each) and probed with the primary antibody for PKM2, SDHB or SDHC in 5% BSA in TBS-T by incubation overnight at 4 deg C. with gentle shaking. The primary antibody for SDHC (ABNOVA H00006391-M02; antimouse) was at 1:500 dilution. The primary antibody for SDHB was from Abcam ab4714-200; antimouse; at 1:1000 dilution. The primary antibody for Pyruvate Kinase M2 (PKM2) was from Novus Biologicals H00005315-D0IP; antirabbit; at 1:500 dilution. After incubation with primary antibodies, the membranes were washed 3 times with TBS-T (1×-15′; 2×5′ each) and probed with the secondary antibody (SDHB & C antimouse; and PKM2 antirabbit; 1:10,000 dilution) for 1 h on the orbital tilting shaker at room temperature. […]"}, "[2]": {"test_system": "Isocitrate Dehydrogenase-1 (IDH-1)", "test": "Western blot of IDH1 levels in normal and cancer cells", "type": "cell-based, human", "conditions": "PACA2, 5g48-100", "experimental": "The whole cell pellets were resuspended one at a time in 1 mL of C7 buffer and transferred to labeled 15 mL tubes. The samples were then sonicated in the cold room on ice using 6 sonic pulses with the setting at #14. The samples were spun for a short time to 2500 g after sonication and the samples transferred to 2 ml tubes. The pH was verified of each sample (pH should be 9.0) using the foam remaining in the […] sample tubes.\nAlkylation and reduction of samples was performed for each sample by adding 10 ul of 1M acrylamide, 25 ul of tributylphoshene and incubation for 90 mins with intermittent mixing. After incubation, 10 ul of 1M DTT was added and the tubes were spun at 20,000 g at 20 deg C. for 10 minutes and transferred the supernatant to labeled Amicon Ultra centrifugal filter units with a 10 k cut off (Millipore catalog #UFC 801024). The samples were spun for 15 minutes at 2500 g in 2 intervals. The conductivity was measured for Chaps alone as well as the samples using a conductivity meter. If the conductivity of samples is high, then 1 ml of chaps was added for buffer exchange and spun again at 2500 g until the volume was down to 250 ul. […]\nThe samples were processed as per standard protocols as described above and the amount of protein in each of the samples was determined by Bradford assay. […]"}}, "data": [{"smiles": "COC1=C(OC)C(=O)C(C/C=C(\\C)CC/C=C(\\C)CC/C=C(\\C)CC/C=C(\\C)CC/C=C(\\C)CC/C=C(\\C)CC/C=C(\\C)CC/C=C(\\C)CC/C=C(\\C)CCC=C(C)C)=C(C)C1=O", "note": "[Q10, Coenzyme Q10]", "values": [{"measurement": "SDH Subunit B protein levels", "setting": "[1]", "value": "increase SDH protein levels"}, {"measurement": "IDH1 Normalized Intensity (HASMC vs. PACA2)", "setting": "[2]", "value": 860}]}]}
